This is an account of results in patent publication US9371280B2, “Substituted pyrrolidine-2-carboxamides” (Hoffmann-La Roche Inc., priority 2012, dated 2016).

By IC50 is commonly meant the point on the concentration scale where inhibition reaches its midpoint.

Structures can show the parent of a compound that is named as a salt.

Chain of interaction between p53 and MDM2 proteins (recombinant GST-tagged MDM2) (Q00987 whole entry): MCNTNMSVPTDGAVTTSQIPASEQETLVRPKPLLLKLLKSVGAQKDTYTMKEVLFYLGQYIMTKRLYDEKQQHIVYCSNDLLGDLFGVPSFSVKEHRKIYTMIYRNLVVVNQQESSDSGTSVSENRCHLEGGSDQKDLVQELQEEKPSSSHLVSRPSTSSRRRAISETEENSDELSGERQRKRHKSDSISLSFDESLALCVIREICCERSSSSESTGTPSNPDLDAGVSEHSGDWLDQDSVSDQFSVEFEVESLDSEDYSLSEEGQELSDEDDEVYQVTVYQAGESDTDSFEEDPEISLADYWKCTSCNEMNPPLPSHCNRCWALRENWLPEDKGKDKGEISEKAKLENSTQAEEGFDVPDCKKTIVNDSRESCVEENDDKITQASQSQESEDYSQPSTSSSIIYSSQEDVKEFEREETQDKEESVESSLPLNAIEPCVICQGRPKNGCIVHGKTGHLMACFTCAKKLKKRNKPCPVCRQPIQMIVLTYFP

The assay has as its target interaction between p53 and MDM2 proteins (recombinant GST-tagged MDM2) (Homo sapiens, UniProt Q00987). Briefly: HTRF assay of inhibition of the p53-MDM2 interaction (GST-MDM2 / biotinylated p53 peptide).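 Further: FRET read-out from Eu-labelled anti-GST antibody to streptavidin-APC, with 90 nM N-terminally biotinylated p53 peptide and 160 ng/ml GST-MDM2 in Tris-borate saline containing 1 mM DTT, 384-well format.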 The assay is classed as binding. Particulars: HTRF, 0.02% BSA, 37° C. 1 h. In general terms: Time-resolved FRET reads energy transfer from a long-lived donor to a nearby acceptor.
As for `COc1cc(C(=O)OCCC(=O)OC(C)(C)C)ccc1NC(=O)[C@@H]1N[C@@H](CC(C)(C)C)[C@](C#N)(c2ccc(Cl)cc2F)[C@H]1c1cccc(Cl)c1F` [Example 37, 4-{[(2R,3S,4R,5S)-4-(4-Chloro-2-fluoro-phenyl)-3-(3-chloro-2-fluoro-phenyl)-4-cyano-5-(2,2-dimethyl-propyl)-pyrrolidine-2-carbonyl]-amino}-3-methoxy-benzoic acid 2-tert-butoxycarbonyl-ethyl ester], the IC50 stood at 16 nM.

Consider `COc1cc(C(=O)OCCC(=O)O)ccc1NC(=O)[C@@H]1N[C@@H](CC(C)(C)C)[C@](C#N)(c2ccc(Cl)cc2F)[C@H]1c1cccc(Cl)c1F` [Example 38, 4-{[(2R,3S,4R,5S)-4-(4-Chloro-2-fluoro-phenyl)-3-(3-chloro-2-fluoro-phenyl)-4-cyano-5-(2,2-dimethyl-propyl)-pyrrolidine-2-carbonyl]-amino}-3-methoxy-benzoic acid 2-carboxy-ethyl ester], for which the IC50 was 10.2 nM.

Take `COc1cc(C(=O)NN)ccc1NC(=O)[C@@H]1N[C@@H](CC(C)(C)C)[C@](C#N)(c2ccc(Cl)cc2F)[C@H]1c1cccc(Cl)c1F` [Example 39, (2R,3S,4R,5S)-4-(4-Chloro-2-fluoro-phenyl)-3-(3-chloro-2-fluoro-phenyl)-4-cyano-5-(2,2-dimethyl-propyl)-pyrrolidine-2-carboxylic acid (4-hydrazinocarbonyl-2-methoxy-phenyl)-amide]: the IC50 came to 36.5 nM.

For `COc1cc(C(=O)O[C@@H]2O[C@H](C(=O)O)[C@@H](O)[C@H](O)[C@H]2O)ccc1NC(=O)[C@@H]1N[C@@H](CC(C)(C)C)[C@](C#N)(c2ccc(Cl)cc2F)[C@H]1c1cccc(Cl)c1F` [Example 40, (2S,3S,4S,5R,6S)-6-(4-{[(2R,3S,4R,5S)-4-(4-Chloro-2-fluoro-phenyl)-3-(3-chloro-2-fluoro-phenyl)-4-cyano-5-(2,2-dimethyl-propyl)-pyrrolidine-2-carbonyl]-amino}-3-methoxy-benzoyloxy)-3,4,5-trihydroxy-tetrahydro-pyran-2-carboxylic acid; compound with trifluoro-acetic acid], the half-inhibitory concentration (IC50) is 6.2 nM.

Regarding `COc1cc(C(=O)OC[C@H]2O[C@@H](O)[C@H](O)[C@@H](O)[C@@H]2O)ccc1NC(=O)[C@@H]1N[C@@H](CC(C)(C)C)[C@](C#N)(c2ccc(Cl)cc2F)[C@H]1c1cccc(Cl)c1F` [Example 41, 4-{[(2R,3S,4R,5S)-4-(4-Chloro-2-fluoro-phenyl)-3-(3-chloro-2-fluoro-phenyl)-4-cyano-5-(2,2-dimethyl-propyl)-pyrrolidine-2-carbonyl]-amino}-3-methoxy-benzoic acid (2R,3S,4S,5R,6R)-3,4,5,6-tetrahydroxy-tetrahydro-pyran-2-ylmethyl ester; compound with trifluoro-acetic acid], the IC50 came to 6.95 nM.

Take `COc1cc(C(=O)OCCOCCOCCOCCOCCOCCOCCOCCO)ccc1NC(=O)[C@@H]1N[C@@H](CC(C)(C)C)[C@](C#N)(c2ccc(Cl)cc2F)[C@H]1c1cccc(Cl)c1F` [Example 42, 4-{[(2R,3S,4R,5S)-4-(4-Chloro-2-fluoro-phenyl)-3-(3-chloro-2-fluoro-phenyl)-4-cyano-5-(2,2-dimethyl-propyl)-pyrrolidine-2-carbonyl]-amino}-3-methoxy-benzoic acid, 2-(2-{2-[2-(2-{2-[2-(2-hydroxy-ethoxy)-ethoxy]-ethoxy}-ethoxy)-ethoxy]-ethoxy}-ethoxy)-ethyl ester, trifluoroacetate salt]: the IC50 was 22.2 nM.

Turning to `COc1cc(C(=O)OCCOCCN(C)C)ccc1NC(=O)[C@@H]1N[C@@H](CC(C)(C)C)[C@](C#N)(c2ccc(Cl)cc2F)[C@H]1c1cccc(Cl)c1F` [Example 46, 4-{[(2R,3S,4R,5S)-4-(4-Chloro-2-fluoro-phenyl)-3-(3-chloro-2-fluoro-phenyl)-4-cyano-5-(2,2-dimethyl-propyl)-pyrrolidine-2-carbonyl]-amino}-3-methoxy-benzoic acid 2-(2-dimethylamino-ethoxy)-ethyl ester, hydrochloride], the IC50 came out at 14.2 nM.

On to `COc1cc(C(=O)OCCOCCOCCO)ccc1NC(=O)[C@@H]1N[C@@H](CC(C)(C)C)[C@](C#N)(c2ccc(Cl)cc2F)[C@H]1c1cccc(Cl)c1F` [Example 47, 4-{[(2R,3S,4R,5S)-4-(4-Chloro-2-fluoro-phenyl)-3-(3-chloro-2-fluoro-phenyl)-4-cyano-5-(2,2-dimethyl-propyl)-pyrrolidine-2-carbonyl]-amino}-3-methoxy-benzoic acid 2-[2-(2-hydroxy-ethoxy)-ethoxy]-ethyl ester, hydrochloride], for which the IC50 is 8.34 nM.

With `COCCOCCOCCOC(=O)c1ccc(NC(=O)[C@@H]2N[C@@H](CC(C)(C)C)[C@](C#N)(c3ccc(Cl)cc3F)[C@H]2c2cccc(Cl)c2F)c(OC)c1` [Example 48, 4-{[(2R,3S,4R,5S)-4-(4-Chloro-2-fluoro-phenyl)-3-(3-chloro-2-fluoro-phenyl)-4-cyano-5-(2,2-dimethyl-propyl)-pyrrolidine-2-carbonyl]-amino}-3-methoxy-benzoic acid 2-[2-(2-methoxy-ethoxy)-ethoxy]-ethyl ester, hydrochloride], the IC50 was 13.5 nM.

Turning to `COCCOCCOCCOCCOC(=O)c1ccc(NC(=O)[C@@H]2N[C@@H](CC(C)(C)C)[C@](C#N)(c3ccc(Cl)cc3F)[C@H]2c2cccc(Cl)c2F)c(OC)c1` [Example 49, 4-{[(2R,3S,4R,5S)-4-(4-Chloro-2-fluoro-phenyl)-3-(3-chloro-2-fluoro-phenyl)-4-cyano-5-(2,2-dimethyl-propyl)-pyrrolidine-2-carbonyl]-amino}-3-methoxy-benzoic acid 2-{2-[2-(2-methoxy-ethoxy)-ethoxy]-ethoxy}-ethyl ester, hydrochloride], the IC50 came out at 13.9 nM.

`COc1cc(C(=O)OCCOCCOCCOCCOCCO)ccc1NC(=O)[C@@H]1N[C@@H](CC(C)(C)C)[C@](C#N)(c2ccc(Cl)cc2F)[C@H]1c1cccc(Cl)c1F` [Example 50, 4-{[(2R,3S,4R,5S)-4-(4-Chloro-2-fluoro-phenyl)-3-(3-chloro-2-fluoro-phenyl)-4-cyano-5-(2,2-dimethyl-propyl)-pyrrolidine-2-carbonyl]-amino}-3-methoxy-benzoic acid 2-(2-{2-[2-(2-hydroxy-ethoxy)-ethoxy]-ethoxy}-ethoxy)-ethyl ester, hydrochloride]: the IC50 turned out to be 9.13 nM.

With `COCCOCCOCCOCCOCCOC(=O)c1ccc(NC(=O)[C@@H]2N[C@@H](CC(C)(C)C)[C@](C#N)(c3ccc(Cl)cc3F)[C@H]2c2cccc(Cl)c2F)c(OC)c1` [Example 51, 4-{[(2R,3S,4R,5S)-4-(4-Chloro-2-fluoro-phenyl)-3-(3-chloro-2-fluoro-phenyl)-4-cyano-5-(2,2-dimethyl-propyl)-pyrrolidine-2-carbonyl]-amino}-3-methoxy-benzoic acid 2-(2-{2-[2-(2-methoxy-ethoxy)-ethoxy]-ethoxy}-ethoxy)-ethyl ester, hydrochloride], the IC50 came to 10 nM.

On to `COc1cc(C(=O)OCCOCCOCCOCCOCCOCCO)ccc1NC(=O)[C@@H]1N[C@@H](CC(C)(C)C)[C@](C#N)(c2ccc(Cl)cc2F)[C@H]1c1cccc(Cl)c1F` [Example 52, 4-{[(2R,3S,4R,5S)-4-(4-Chloro-2-fluoro-phenyl)-3-(3-chloro-2-fluoro-phenyl)-4-cyano-5-(2,2-dimethyl-propyl)-pyrrolidine-2-carbonyl]-amino}-3-methoxy-benzoic acid 2-[2-(2-{2-[2-(2-hydroxy-ethoxy)-ethoxy]-ethoxy}-ethoxy)-ethoxy]-ethyl ester, hydrochloride], for which the IC50 came out at 9.95 nM.

As for `COC(=O)CC[C@@H](NC(=O)c1ccc(NC(=O)[C@@H]2N[C@@H](CC(C)(C)C)[C@](C#N)(c3ccc(Cl)cc3F)[C@H]2c2cccc(Cl)c2F)c(OC)c1)C(=O)OC` [Example 53, (R)-2-(4-{[(2R,3S,4R,5S)-4-(4-Chloro-2-fluoro-phenyl)-3-(3-chloro-2-fluoro-phenyl)-4-cyano-5-(2,2-dimethyl-propyl)-pyrrolidine-2-carbonyl]-amino}-3-methoxy-benzoylamino)-pentanedioic acid dimethyl ester, hydrochloride], the IC50 is 12.7 nM.

For the molecule `COc1cc(C(=O)N[C@H](CCC(=O)O)C(=O)O)ccc1NC(=O)[C@@H]1N[C@@H](CC(C)(C)C)[C@](C#N)(c2ccc(Cl)cc2F)[C@H]1c1cccc(Cl)c1F` [Example 54, (R)-2-(4-{[(2R,3S,4R,5S)-4-(4-Chloro-2-fluoro-phenyl)-3-(3-chloro-2-fluoro-phenyl)-4-cyano-5-(2,2-dimethyl-propyl)-pyrrolidine-2-carbonyl]-amino}-3-methoxy-benzoylamino)-pentanedioic acid, hydrochloride], the IC50 amounted to 4.55 nM.

In the case of `COc1cc(C(=O)N(C)C[C@H](O)[C@@H](O)[C@H](O)[C@H](O)CO)ccc1NC(=O)[C@@H]1N[C@@H](CC(C)(C)C)[C@](C#N)(c2ccc(Cl)cc2F)[C@H]1c1cccc(Cl)c1F` [Example 55, (2R,3S,4R,5S)-4-(4-Chloro-2-fluoro-phenyl)-3-(3-chloro-2-fluoro-phenyl)-4-cyano-5-(2,2-dimethyl-propyl)-pyrrolidine-2-carboxylic acid {2-methoxy-4-[methyl-((2S,3R,4R,5R)-2,3,4,5,6-pentahydroxy-hexyl)-carbamoyl]-phenyl}-amide, hydrochloride], the IC50 is 9.1 nM.

For `COc1cc(C(=O)N[C@@H]2[C@@H](O)[C@H](O)[C@@H](CO)O[C@@H]2O)ccc1NC(=O)[C@@H]1N[C@@H](CC(C)(C)C)[C@](C#N)(c2ccc(Cl)cc2F)[C@H]1c1cccc(Cl)c1F` [Example 56, (2R,3S,4R,5S)-4-(4-Chloro-2-fluoro-phenyl)-3-(3-chloro-2-fluoro-phenyl)-4-cyano-5-(2,2-dimethyl-propyl)-pyrrolidine-2-carboxylic acid [2-methoxy-4-((2S,3R,4R,5S,6R)-2,4,5-trihydroxy-6-hydroxymethyl-tetrahydro-pyran-3-ylcarbamoyl)-phenyl]-amide, hydrochloride], the 50% inhibitory concentration (IC50) turned out to be 9.88 nM.
